This data set in a line: Stability assay of Lipid A liposomes (LC-ELSD). The following applies: for degradation of Lipid A in liposome formulation containing antioxidant: pH=5, 37° C., day 5. How it is done:
The stability of lipids in formulation were performed and monitored using the following HPLC and ELSD (Evaporative Light Scattering Detector) conditions.
Column: Waters Xbridge C18 2.5 μm 2.1×150 mm reversed phase column
Model: Polymer lab ELS 2100
Evaporator temperature: 90
Nebuliser temperature: 60
Fresh Lipid A liposome samples with loaded siRNA AD1661 were prepared as described herein. These Lipid A liposome samples were incubated in 100 mM NaOAc buffer (pH=5) at 37° C., and were subject to LC-ELSD analysis every other day.
In order to examine whether degradation of Lipid A can be prevented by addition of radical scavengers such as butylated hydroxytoluene (BHT or butylhydroxytoluene), Lipid A-containing liposome formulation LNP08 with lipids molar ratio of 60/7.5/31/1.5 (lipid A/DSPC/Cholesterol/PEG-C14 lipid) loaded with siRNA AD1661 containing BHT was tested in the stability assay as described above. These samples were subject to LC-ELSD analysis at day 5.
In order to examine whether the degradation of Lipid A can be prevented by antioxidants such as vitamin E, Lipid A-containing liposome formulation LNP09 loaded with siRNA AD1661 containing various amount of vitamin E were tested in the stability assay as described above. These samples were subject to LC-ELSD analysis at day 5. Chromatographs comparing the stability of various Lipid A liposome formulations with or without vitamin E were shown in FIG. 34.

Turning to `Cc1cc(C(C)(C)C)c(O)c(C(C)(C)C)c1` [BHT, butylated hydroxytoluene], the “degradation of Lipid A in liposome formulation containing antioxidant” value is on record as “inhibited”. On to vitamin E, for which the “degradation of Lipid A in liposome formulation containing antioxidant” value is reported as “inhibited”. Also, the “degradation of Lipid A, higher amount of antioxidant” value (LNP09, pH=5, day 5) is “reverse effect”.

Values taken from patent publication US20120101148A1, “LIPID FORMULATION” (ALNYLAM PHARMACEUTICALS, INC., priority 2009, published 2012).
